According to patent publication US20260049109A1, “NOVEL IMMUNOMODULATORY, NEUROMODULATORY, OSTEOGENIC, AND ANTI-OSTEOPOROTIC HKUOT-S2 PROTEIN THAT ENHANCES BONE FRACTURE REPAIRS AND SUPPRESSES OSTEOPOROSIS DEVELOPMENT” (The University of Hong Kong, priority 2022, published 2026):

What was measured:
mTOR1/4E-BP1/AKT1 axis = assay: XL388-induced mTOR inhibition during hMSCs-osteoblast differentiation (qPCR, western blot); format: cell-based, human
Method: hMSCs were differentiated into osteoblasts with/without […] XL388 or 0.1 μg ml^−1 HKUOT-S2 treatments for 7 days with medium replenishments every 3 days. The collected cell pellets were processed for qPCR and western blot analyses to establish the mechanism by which HKUOT-S2 promotes osteogenesis and new bone formation. The lists of all the genes and corresponding primer pairs as well as primary and secondary antibodies used for qPCR and western blot analyses are listed in Tables 6, 7 and 8.

[1] = system: ovariectomized (OVX) mice; assay: OVX-induced osteoporosis, femur μCT; format: in vivo, mouse
Method: A total of 32 female C57BL/6J mice at the age of 8-12 weeks old and weighing between 22-25 g were used in this study. All mice underwent dorsoventral surgical operation under anesthesia. The sham control underwent surgery without ovary removal. The ovaries were completely removed from the anterior uterine horns in the OVX group. There were four groups, namely sham control (n=8), OVX control (n=8), OVX+30 μg kg^−1 estrogen (E2, n=8), and OVX+2.18 mg kg^−1 HKUOT-S2 (n=8) treatment groups. The sham and OVX control mice were given subcutaneous of 200 μl of 1XBP. The OVX+E2 and OVX+HKUOT-S2 groups were given 200 μl E2 and HKUOT-S2 via subcutaneous and IP injections respectively. All treatments started 4 hrs after the surgery and thrice per week for 4 weeks post-surgery. Micro CT (μCT) scans were taken on day zero and biweekly post-surgery. At the experimental endpoint, all the mice in the groups were sacrificed under overdose of anesthesia, the bone tissues harvested and processed for bone histomorphometry and immunohistochemical analyses.

hMSCs = hMSCs to osteoblast differentiation; format: cell-based, human
Method: The hMSCs and MC3T3-1E cell lines were seeded at 2.5×10^4 cells/well and 2.5×10^3 cells/well of 6-well plate respectively, containing 2 ml of normal cell culture media. The cell culture media were then replaced with osteogenic media containing 100 nM Dex, 10 mM β-Gly and 0.28 mM Asc with or without the HKUOT-S2 protein. The cells were maintained in the osteogenic media for 14 days with media replacement every 3 days. The nondifferentiated cells maintained in the normal cell culture media were used as controls. The cell pellets were then collected and processed for osteogenic gene expression analysis by qPCR at the experimental endpoints.
High Quality Total RNAs, with OD260/OD280 Between 1.98-2.00, were extracted from the in vitro experimented cell lines and the tissues harvested from the in vivo experiments using RNAiso plus reagent (Cat #9109) according to the manufacturer's protocol. The quality and quantity of the extracted RNAs were determined using the NanoDrop One (C) UV-VIS micro-volume spectrophotometer (Thermo Scientific). Equal amount of RNAs across the experimental groups were reverse transcribed into complementary DNA (cDNA) using the PrimeScript™ RT reagent Kit (cat #RR037A, Takara) and Peltier Thermal Cycler (Cat #PTC-100, MJ Research) according to the manufacturers' instructions. Specific primer pairs, equal amount of cDNA for the various experimental groups and the PowerUp™ SYBR™ Green Master Mix (Cat #A25742, Thermo Scientific) were used to prepare the qPCR reaction mix. 10 μl of the qPCR reaction mix of the control and HKUOT-S2 treatment groups, loaded into 96-well plate (0.2 ml) were used evaluate the HKUOT-S2-induced gene expressions in the cell lines from the in vitro and the harvested tissues from the in vivo experiments using the QuantStudio 5 real-time PCR system (Thermo Scientific). The HKUOT-S2-induced differentially gene expression fold changes were calculated by 2^−ΔΔCt method after housekeeping gene normalization.

[2] = 250 nM XL388 alone, western blot
[3] = femur of OVX mice, 2.18 mg/Kg HKUOT-S2, 0.5 mg/Kg SEQ ID NO: 83, n=3
[4] = 0.1 μg/ml HKUOT-S2, 0.01 μg/ml SEQ ID NO: 83

Cc1c(C(=O)N2CCOc3ccc(-c4ccc(N)nc4)cc3C2)ccc(S(C)(=O)=O)c1F [XL388]
4E-BP1 expression (mTOR1/4E-BP1/AKT1 axis; 125 nM XL388 alone, qPCR): significantly suppressed | AKT1 expression (mTOR1/4E-BP1/AKT1 axis; 125 nM XL388 alone, qPCR): significantly suppressed | MTOR1 expression (mTOR1/4E-BP1/AKT1 axis; 125 nM XL388 alone, qPCR): significantly suppressed | RUNX2 expression (mTOR1/4E-BP1/AKT1 axis; 125 nM XL388 alone, qPCR): significantly suppressed | S6K1 expression (mTOR1/4E-BP1/AKT1 axis; 125 nM XL388 alone, qPCR): significantly suppressed | phosphorylation of 4E-BP1 (mTOR1/4E-BP1/AKT1 axis; [2]): prevented | phosphorylation of MTOR1 (mTOR1/4E-BP1/AKT1 axis; [2]): prevented | ALP expression (mTOR1/4E-BP1/AKT1 axis; XL388-induced mTOR inhibition): no effects

TKSSLPGQTK (HKUOT-S2 peptide) [SEQ ID NO: 83]
osteoporosis suppression effects compared with the 2.18 mg/Kg HKUOT-S2 treatment group ([1]; 0.5 mg/Kg SEQ ID NO: 83, OVX mice): stronger | bone surface area to bone volume ratio (BS/BV) [1, 3]: decreased | bone surface area to tissue volume (BS/TV) ratio [1, 3]: significantly increasing | bone volume (BV/TV) [1, 3]: significantly increasing | trabecular number (Tb. N) [1, 3]: significantly increasing | trabecular separation (Tb. Sp) [1, 3]: decreased | trabecular thickness (Tb.th) [1, 3]: significantly increasing | osteogenic effects compared to the HKUOT-S2 treatment (hMSCs): robust | ALP activities (hMSCs; [4]): significantly increased | ALP mRNA expression (hMSCs; [4]): increasing | oestrogen receptor α (ERα) mRNA expression (hMSCs; [4]): increasing | osteoblast biomineralization (hMSCs; [4]): significantly increased | COL-1A expression (hMSCs; 0.01μ gml^−1): increasing
